Measured values taken from US10413505B1, “Pharmaceutical compositions and methods of using the same” (priority 2017, dated 2019).

Experiments:
[1] = Example 3 plasma pharmacokinetics, normal hepatic function vs hepatic impairment
[2] = Example 2 plasma pharmacokinetics, normal renal function vs severe renal impairment; settings: all samples in all individuals except four samples in one subject; Example 2
[3] = plasma, subjects with hepatic impairment, single intranasal dose

## COC(=O)[C@H]1[C@@H](OC(=O)c2ccccc2)C[C@@H]2CC[C@H]1N2 [norcocaine]
[1]; all subjects with normal hepatic function, all time points
  plasma concentration (not measurable, below LLOQ): < 0.1 ng/mL
[1]; multiple time points in three Grade B impaired subjects
  plasma concentration, low levels detected: ≤ 0.31 ng/mL
[1]; [3]
  AUC0→t (Geometric mean): 0.753 ng·h/mL
  AUC0→t (Mean): 0.950 ng·h/mL
  AUC0→t (Median): 0.788 ng·h/mL
  Clast (Geometric mean): 0.126 ng/mL
  Clast (Mean): 0.127 ng/mL
  Clast (Median): 0.126 ng/mL
  Cmax (Geometric mean): 0.219 ng/mL
  Cmax (Mean): 0.227 ng/mL
  Cmax (Median): 0.212 ng/mL
  Tlast (Geometric mean): 5.24 h
  Tlast (Mean): 6.33 h
  Tlast (Median): 4.00 h
  Tmax (Geometric mean): 1.50 h
  Tmax (Mean): 1.50 h
  Tmax (Median): 1.50 h
  t1/2 (Geometric mean): 5.07 h
  t1/2 (Mean): 6.23 h
  t1/2 (Median): 6.23 h
[1]; single time point (7 min) in one Grade B subject
  plasma concentration: 0.354 ng/mL
[2]
  plasma concentration (below the LLOQ): < 0.1 ng/mL
